Measurements published in the supplement of paper PMC8671470.

Columns and labels:
Conditions in all cases: 72 h
[1] = system: myeloid leukemia patient primary cells Pat.4; experiment: area under dose-response curve (viability, 1 nM-10 uM) (fraction (0-1)); higher = more sensitive
Protocol: (§1)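 AUC (0–1, higher = more sensitive) of the 5-point dose–response (1 nM–10 µM, 72 h, CellTiter-Glo) in primary AML/CML patient mononuclear cells. 0.030103 is the floor for inactive compounds.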

[2] = system: myeloid leukemia patient primary cells Pat.1; experiment: as above
Protocol: as §1

[3] = system: myeloid leukemia patient primary cells Pat.12; experiment: as above
Protocol: as §1

[4] = system: myeloid leukemia patient primary cells Pat.2; experiment: as above
Protocol: as §1

[5] = system: myeloid leukemia patient primary cells Pat.3; experiment: as above
Protocol: as §1

[6] = system: myeloid leukemia patient primary cells Pat.14; experiment: as above
Protocol: as §1

[7] = system: myeloid leukemia patient primary cells Pat.9; experiment: as above
Protocol: as §1

[8] = system: myeloid leukemia patient primary cells Pat.7; experiment: as above
Protocol: as §1

[9] = system: myeloid leukemia patient primary cells Pat.10; experiment: as above
Protocol: as §1

[10] = system: myeloid leukemia patient primary cells Pat.13; experiment: as above
Protocol: as §1

[11] = system: myeloid leukemia patient primary cells Pat.11; experiment: as above
Protocol: as §1

[12] = system: myeloid leukemia patient primary cells Pat.5; experiment: as above
Protocol: as §1

[13] = system: myeloid leukemia patient primary cells Pat.15; experiment: as above
Protocol: as §1

[14] = system: myeloid leukemia patient primary cells Pat.6; experiment: as above
Protocol: as §1

[15] = system: myeloid leukemia patient primary cells Pat.8; experiment: as above
Protocol: as §1

[16] = system: HL-60; experiment: cell viability (% survival relative to DMSO control); higher = less cytotoxic
Protocol: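 8x8 drug-combination matrices (0-5000 nM; rosiglitazone and lestaurtinib 0-1000 nM) were run in HL-60 cells for 72 h with a CellTiter-Glo read-out. Survival is normalised to DMSO and 10 µM bortezomib and clipped at 100%. Bliss synergy was analysed in SynergyFinder.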

c1cc(-c2cnn3cc(-c4ccc(OCCN5CCCCC5)cc4)cnc23)ccn1 [Dorsomorphin]
Conditions	area under dose-response curve
[1]	0.182
[2]	0.142
[3]	< 0.0301
[4]	< 0.0301
[5]	0.0457
[6]	< 0.0301
[7]	0.488
[8]	0.0504
[9]	0.342
[10]	0.195
[11]	0.106
[12]	0.508
[13]	0.0705
[14]	< 0.0301

CC(=O)Nc1nc(C)c(-c2ccc(Cl)c(S(=O)(=O)NCCO)c2)s1 [PIK93]
Conditions	area under dose-response curve
[1]	0.401
[2]	0.365
[3]	< 0.0301
[4]	0.0748
[5]	0.545
[6]	0.139
[7]	0.82
[8]	0.16
[9]	0.728
[10]	0.214
[11]	0.204
[12]	0.907
[13]	0.417
[14]	0.0757
[15]	0.0853

O=C(O)CC[N+](=O)[O-] [3-nitropropionic acid]
Conditions	area under dose-response curve
[1]	0.113
[2]	0.0529
[3]	0.0457
[5]	0.133
[6]	0.112
[7]	0.148
[8]	0.058
[9]	0.0892
[10]	0.0548
[11]	< 0.0301
[12]	0.168
[13]	0.123
[14]	0.0437
[15]	< 0.0301

Cc1[nH]nc(C(F)(F)F)c1Cc1sc2c(c1C(=O)N1C[C@](C)(O)CO1)c(=O)n(C)c(=O)n2C(C)C [AZD3965]
Conditions	area under dose-response curve
[1]	< 0.0301
[2]	< 0.0301
[3]	< 0.0301
[4]	< 0.0301
[5]	< 0.0301
[6]	< 0.0301
[7]	< 0.0301
[8]	< 0.0301
[9]	0.167
[10]	< 0.0301
[11]	< 0.0301
[12]	0.149
[13]	< 0.0301
[14]	< 0.0301
[15]	< 0.0301

O=C(O)CC[N+](=O)[O-] [3-nitropropionic acid] + CCn1c(=Cc2cccc[n+]2CC)sc(=C2Sc3ccccc3N2C)c1=O [MKT 077]
cell viability [%], [16]
Conditions	drug1 concentration 5 nM	drug1 concentration 10 nM	drug1 concentration 50 nM	drug1 concentration 100 nM	drug1 concentration 500 nM	drug1 concentration 1000 nM	drug1 concentration 5000 nM
drug2 concentration 5 nM	95.5	92.9	74.5	> 100	> 100	> 100	88.8
drug2 concentration 10 nM	> 100	> 100	> 100	> 100	> 100	> 100	> 100
drug2 concentration 50 nM	> 100	92.7	> 100	98.3	97.7	> 100	> 100
drug2 concentration 100 nM	91.2	83.3	56.4	> 100	99.2	50.3	> 100
drug2 concentration 500 nM	99.2	84.2	> 100	> 100	> 100	84.7	86.6
drug2 concentration 1000 nM	> 100	> 100	> 100	> 100	84	> 100	67.3
drug2 concentration 5000 nM	> 100	79.2	> 100	84.7	> 100	> 100	99.6
